Laboratory results reported in patent EP4810038A1, “METHOD FOR TREATING ALK-POSITIVE OR ROS1-POSITIVE NON-SMALL CELL LUNG CANCER” (Shenzhen TargetRx Co., Ltd., priority 2023, dated 2025).
Values joined by “and” are separate entries in the source; they are usually repeats but may differ in a detail not shown here. Equal values may be shown once. “Also recorded” adds a separate entry of the source.

How the values were obtained:
[1] = Phase I clinical trial: safety and tolerability (TRAE, CNS-related AE, DLT, MTD, RP2D); type: in vivo
Text: An adverse event will be described using MedDRA (Medical Dictionary for Regulatory Activities). Analysis of an adverse event will be based on a treatment emergent adverse event (TEAE). TEAE is defined as an adverse event that occur or worsen after a treatment/medication.
Subjects in all the dose groups received a single dose on day 1 (D1), and the blood samples were collected for pharmacokinetic (PK) assay and tolerability observation. […] The administration frequency for the subjects in the subsequent dose groups after entering the multiple-dose period was determined based on the obtained PK and tolerability data. In this trial, the administration frequency for all the subjects could be adjusted throughout the trial based on the continuously acquired safety and PK data. The four lower dose groups (5 mg, 10 mg, 20 mg and 40 mg) used an accelerated titration design, with one subject enrolled in each dose group. […] The 60 mg dose group and the subsequent dose groups followed a "3+3" dose escalation method, and the MTD was determined. […] During the dose escalation, if a dose group was confirmed to have a preliminary antitumor effect and manageable safety (e.g., no DLT occurred in 3 subjects or only 1 out of 6 subjects experienced DLT), the dose level could be expanded after a discussion and confirmation by the researcher and the sponsor.

[2] = system: ALK-positive advanced NSCLC who had failed a second-generation ALK inhibitor; assay: Phase II single-arm trial, 60 mg QD: whole-body tumor efficacy (IRC assessment); type: in vivo, human
Text: Variable of the research: whether the subjects achieved objective response (CR/PR) during the treatment, as assessed by the independent review committee (IRC).

[3] = Phase II single-arm trial: safety analysis; type: in vivo; conditions: 60 mg QD
Text: Once a subject met the criteria for the discontinuation of the treatment/withdrawal from the treatment and discontinued the medication, the subject entered a 4-week safety follow-up period. If other anti-tumor therapies were used during the safety follow-up period, a safety follow-up visit and inspection must be completed before starting the other anti-tumor therapies. For the unresolved adverse event or abnormal laboratory test, the follow-up continued until the event was resolved, the subject returned to the baseline status, the condition stabilized, a reasonable explanation was obtained, or the subject was lost to follow-up or died.

[4] = 158 subjects, cutoff May 20, 2024
[5] = whole-body, full analysis set (N=158)

Compound: [2H]C([2H])([2H])n1nc2c(c1C#N)-c1cnc(N)c(c1)O[C@H](C)c1cc(F)ccc1C(=O)N(C)C2 [compound A, (10R)-7-amino-12-fluoro-2-(methyl-d3)-10,16-dimethyl-15-oxo-10,15,16,17-tetrahydro-2H-8,4-(metheno)pyrazolo[4,3-h][2,5,11]benzoxadiazacyclotetradecine-3-carbonitrile]
- TRAE Increased LDL cholesterol ([1]; In total n=198, any level): 51 (25.8) number of cases (%)
- TRAE Increased creatine phosphokinase ([1]; In total n=198, any level): 11 (5.6) number of cases (%)
- TRAE Increased glutamine transferase ([1]; In total n=198, any level): 10 (5.1) number of cases (%)
- TRAE Increased lipase ([1]; In total n=198, any level): 19 (9.6) number of cases (%)
- TRAE Peripheral neuropathy ([1]; In total n=198, any level): 38(19.2) number of cases (%)
- TRAE Positive for occult blood in urine ([1]; In total n=198, any level): 13 (6.6) number of cases (%)
- TRAE Proteinuria ([1]; In total n=198, any level): 10 (5.1) number of cases (%)
- TRAE Weight gain ([1]; In total n=198, any level): 91 (46.0) number of cases (%)
- Any TRAE ([1]; In total n=198, ≥3): 73 (36.9%) number of cases (%)
- TRAE Anemia ([1]; In total n=198, ≥3): 4 (2.0) number of cases (%)
- TRAE Diarrhea ([1]; In total n=198, ≥3): 0 number of cases (%)
- TRAE Edema ([1]; In total n=198, ≥3): 3(1.5) number of cases (%)
- TRAE Elevated alanine aminotransferase ([1]; In total n=198, ≥3): 0 number of cases (%)
- TRAE Elevated creatinine ([1]; In total n=198, ≥3): 0 number of cases (%)
- TRAE Hypercholesterolemia ([1]; In total n=198, ≥3): 18 (9.1) number of cases (%)
- TRAE Hypertriglyceridemia ([1]; In total n=198, ≥3): 38 (19.2) number of cases (%)
- TRAE Hyperuricemia ([1]; In total n=198, ≥3): 4 (2.0) number of cases (%)
- TRAE Hypoproteinemia ([1]; In total n=198, ≥3): 0 number of cases (%)
- TRAE Increased AST ([1]; In total n=198, ≥3): 0 number of cases (%)
- TRAE Increased LDL cholesterol ([1]; In total n=198, ≥3): 0 number of cases (%)
- TRAE Increased creatine phosphokinase ([1]; In total n=198, ≥3): 0 number of cases (%)
- TRAE Increased glutamine transferase ([1]; In total n=198, ≥3): 2 (1.0) number of cases (%)
- TRAE Increased lipase ([1]; In total n=198, ≥3): 1 (0.5) number of cases (%)
- TRAE Peripheral neuropathy ([1]; In total n=198, ≥3): 1(0.5) number of cases (%)
- TRAE Positive for occult blood in urine ([1]; In total n=198, ≥3): 0 number of cases (%)
- TRAE Proteinuria ([1]; In total n=198, ≥3): 0 number of cases (%)
- TRAE Weight gain ([1]; In total n=198, ≥3): 14 (7.1) number of cases (%)
- incidence of other AE, 60 mg dose group versus 80 mg dose group ([1]; dose escalation and dose expansion phases): significantly lower
- dose-limiting toxicity (DLT) ([1]; dose escalation phase, 5 to 125 mg): No DLT was observed; also recorded: No dose-limiting toxicity was observed
- MTD ([1]; dose escalation up to 125 mg): not reached
- Any CNS-related AE ([1]; ≥3): 2 (1.0) number of cases (%)
- CNS-related AE: Anger ([1]; ≥3): 0 number of cases (%)
- CNS-related AE: Cognitive impairment ([1]; ≥3): 0 number of cases (%)
- CNS-related AE: Depression ([1]; ≥3): 0 number of cases (%)
- CNS-related AE: Disorganized speech ([1]; ≥3): 0 number of cases (%)
- CNS-related AE: Impact on cognition ([1]; ≥3): 1 (0.5) number of cases (%)
- CNS-related AE: Impact on language ([1]; ≥3): 1 (0.5) number of cases (%)
- CNS-related AE: Insomnia ([1]; ≥3): 0 number of cases (%)
- CNS-related AE: Memory impairment ([1]; ≥3): 0 number of cases (%)
- CNS-related AE: Mental disorder ([1]; ≥3): 1 (0.5) number of cases (%)
- CNS-related AE: Poor sleep quality ([1]; ≥3): 0 number of cases (%)
- CNS-related AE: Speech disorder ([1]; ≥3): 1 (0.5) number of cases (%)
- median DOR [2, 4]: not yet reached
- median PFS [2, 4]: 11.14 months
- median TTR [2, 4]: 1.38 months
- ORR ([2]; subgroup ECOG PS score of 0 at baseline, FAS): 50.0%
- ORR ([2]; subgroup ECOG PS score of 1 to 2 at baseline, FAS): 40.8%
- ORR ([2]; subgroup age < 65 years old, FAS): 43.0%
- ORR ([2]; subgroup age ≥ 65 years old, FAS): 40.0%
- ORR ([2]; subgroup female, FAS): 42.9%
- ORR ([2]; subgroup male, FAS): 41.9%
- ORR ([2]; subgroup never received chemotherapy, FAS): 45.4%
- ORR ([2]; subgroup previously received chemotherapy, FAS): 37.7%
- ORR ([2]; subgroup with a smoking history, FAS): 38.6%
- ORR ([2]; subgroup with brain metastases at baseline, FAS): 45.3%
- ORR ([2]; subgroup without a smoking history, FAS): 39.4%
- ORR ([2]; subgroup without brain metastases at baseline, FAS): 38.9%
- BOR CR [2, 5]: 0 n (%)
- BOR NE [2, 5]: 2 (1.3) n (%)
- BOR PD [2, 5]: 25 (15.8) n (%)
- BOR PR [2, 5]: 67 n (%) and 67 (42.4) n (%)
- BOR SD [2, 5]: 64 (40.5) n (%)
- DCR [2, 5]: 131 (82.9) n (%)
- ORR [2, 5]: 67 n (%) and 67 (42.4) n (%)
- common TRAEs [3]: hypercholesterolemia, hypertriglyceridemia, weight gain, anemia, and peripheral edema
- incidence of TRAEs leading to dose reduction, temporary or permanent discontinuation of medication [3]: low
